Earlier results, collected in US20150209375A1, “POSOLOGY AND ADMINISTRATION OF GLUCOCORTICOID BASED COMPOSITIONS” (DuoCort Pharma AB, priority 2010, published 2015).

Settings: Lennernäs et al 2008

- BCS class (Amidon et al 1995): BCS class II
- extraction: low extraction drug
SMILES: C[C@]12CCC(=O)C=C1CC[C@@H]1[C@@H]2[C@@H](O)C[C@@]2(C)[C@H]1CC[C@]2(O)C(=O)CO [Hydrocortisone]
